Assay results from patent publication US20080293820A1, “METHODS FOR IMPROVING PHYSICAL FUNCTION IN FIBROMYALGIA” (Cypress Bioscience, Inc., priority 2007, published 2008).
Structures can show the parent of a compound that is named as a salt.

Test system: patients who meet the 1990 ACR criteria for fibromyalgia syndrome
Assay: Example 2: multicenter, double-blind, randomized, placebo-controlled monotherapy study of milnacipran for treatment of fibromyalgia (1196 patients)
Type: in vivo, human
Set-up: Mean Change from Baseline in PFI SF-36 domain score / Mean Change from Baseline in ROLP SF-36 domain score / Mean Change from Baseline in PAIN SF-36 domain score / Mean Change from Baseline in GHP SF-36 domain score: scale not given here
Conditions: for time-weighted average (AUC) of SF-36 PCS Scores, Median / time-weighted average (AUC) of SF-36 PCS Scores, Mean: Visits Tx3-Tx15, intent to treat; for Composite Pain: number of responders / Composite Syndrome: number of responders / PGIC Component: number of responders / Pain Component: number of responders / SF36 PCS Component: number of responders: 200 mg (396); for time-weighted average (AUC) of SF-36 PCS Scores, Difference from Placebo / time-weighted average (AUC) of SF-36 PCS Scores, LS Mean: Tx3-Tx15, ANCOVA model
Experimental: The primary outcome was a composite responder analysis assessing response rates of two doses (100 mg/day and 200 mg/day) of milnacipran as compared with placebo at Visit Tx15 (week 15).
This was a multicenter, randomized, double-blind, placebo-controlled three-arm study designed which enrolled 1196 patients who meet the 1990 ACR criteria for fibromyalgia syndrome (history of widespread pain and pain in 11 of 18 tender point sites on digital palpation), as well as the more detailed admission criteria outlined in the protocol.
Patients were randomized to receive placebo, 100 mg/day milnacipran or 200 mg/day milnacipran in a ratio of 1:1:1 (placebo=401 patients, 100 mg/day=399 patients, 200 mg/day=396 patients). The patients assigned to the two active treatment arms received a total of 12 weeks of stable-dose milnacipran exposure after the 3 weeks of dosage escalation steps, for a total of 15 weeks of drug exposure. All randomized medications (placebo and milnacipran) were administered twice a day (BID).
The primary efficacy assessment of this study was a composite responder status defined by three domains of interest evaluated at visit Tx15. The domains measured were
1) pain (measured by an electronic diary in the morning as a daily recall pain score); 2) patient global (measured by the PGIC, 1-7 scale); 3) physical function (measured by the SF-36 PCS).
The secondary efficacy parameters were time-weighted average (AUC) of the weekly average PED morning recall pain scores for Weeks 4 through 15, PGIC, and SF-36 PCS for Visit Tx3 to Visit Tx15.
The physical function domain for response analysis was measured by the Physical Component Summary of SF-36 (SF-36 PCS). The SF-36 is a brief, well-established, self-administered patient questionnaire for the assessment of health status, functional status, and quality of life. The SF-36 measures eight domains of health status: physical functioning, role limitations due to physical problems, bodily pain, general health perceptions, energy/vitality, social functioning, role limitations due to emotional problems, and mental health. An SF-36 PCS score and a mental component summary (MCS) score can be calculated by combining and weighting the various individual scales. The PCS and MCS scores have been standardized to have a mean=50, SD=10 in the general healthy US population (see, e.g., Ware, J., M. Kosinski, and J. Dewey, How to Score Version 2 of the SF-36 Health Survey (Standard & Acute Forms). 3rd ed. 2000, Lincoln, R.I.: QualityMetric).
A patient was classified as a responder for the treatment of pain of fibromyalgia if he or she reached Visit Tx15 and satisfied the following criteria: • Greater than or equal to 30% in pain reduction from baseline; • PGIC rated as “much or very much improved,” (i.e., a score of 1 or 2 on the 1-7 scale at endpoint.)
A patient was classified as a responder for the treatment of FMS if he or she satisfied the responder criteria for the treatment of pain of fibromyalgia and the following additional criterion (at visit Tx15): • Improvement on the SF-36 PCS score from baseline by an amount at least equivalent to the minimal clinically important difference, as defined in the Statistical Analysis Plan.
Table 6 summarizes 3-month results for the Baseline Observation Carried Forward (BOCF), Last Observation Carried Forward (LOCF) and study completer (OC) populations. LOCF is an analysis in which observations are carried forward to the last time point for patients who dropped out. The LOCF analysis treats the carried-forward data as observed data at the last time point. BOCF is an analysis that requires that the patient remain active in the trial to be evaluated for response. If a patient withdrew from the trial for any reason, they were classified as a non-responder irregardless of their pain and global scores at the time of withdrawal. […]

Compound: CCN(CC)C(=O)C1(c2ccccc2)CC1CN (racemic) [milnacipran, Z-2-aminomethyl-1-phenyl-N,N-diethylcyclopropanecarboxamide hydrochloride]
- time-weighted average (AUC) of SF-36 PCS Scores, Median (100 mg, OC): 432.8
- Composite Pain: number of responders (3-months, BOCF): 98
- Composite Syndrome: number of responders (3-months, BOCF): 55
- PGIC Component: number of responders (3-months, BOCF): 129
- Pain Component: number of responders (3-months, BOCF): 119
- SF36 PCS Component: number of responders (3-months, BOCF): 89
- Composite Pain: number of responders (3-months, LOCF): 117
- Composite Syndrome: number of responders (3-months, LOCF): 65
- PGIC Component: number of responders (3-months, LOCF): 151
- Pain Component: number of responders (3-months, LOCF): 158
- SF36 PCS Component: number of responders (3-months, LOCF): 109
- Composite Pain: responder rate (200 mg, 3-months, BOCF): (24.75%)
- Composite Pain: responder rate difference from placebo (unlabelled line) (200 mg, 3-months, BOCF): 8.29%
- Composite Syndrome: responder rate (200 mg, 3-months, BOCF): (13.89%)
- Composite Syndrome: responder rate difference from placebo (unlabelled line) (200 mg, 3-months, BOCF): 5.16%
- PGIC Component: responder rate (200 mg, 3-months, BOCF): (32.58%)
- PGIC Component: responder rate difference from placebo (unlabelled line) (200 mg, 3-months, BOCF): 9.64%
- Pain Component: responder rate (200 mg, 3-months, BOCF): (30.05%)
- Pain Component: responder rate difference from placebo (unlabelled line) (200 mg, 3-months, BOCF): 4.86%
- SF36 PCS Component: responder rate (200 mg, 3-months, BOCF): (22.47%)
- SF36 PCS Component: responder rate difference from placebo (unlabelled line) (200 mg, 3-months, BOCF): 1.02%
- Composite Pain: responder rate (200 mg, 3-months, LOCF): (29.55%)
- Composite Pain: responder rate difference from placebo (unlabelled line) (200 mg, 3-months, LOCF): 11.35%
- Composite Syndrome: responder rate (200 mg, 3-months, LOCF): (16.41%)
- Composite Syndrome: responder rate difference from placebo (unlabelled line) (200 mg, 3-months, LOCF): 6.68%
- PGIC Component: responder rate (200 mg, 3-months, LOCF): (38.13%)
- PGIC Component: responder rate difference from placebo (unlabelled line) (200 mg, 3-months, LOCF): 13.19%
- Pain Component: responder rate (200 mg, 3-months, LOCF): (39.90%)
- Pain Component: responder rate difference from placebo (unlabelled line) (200 mg, 3-months, LOCF): 11.22%
- SF36 PCS Component: responder rate (200 mg, 3-months, LOCF): (27.53%)
- SF36 PCS Component: responder rate difference from placebo (unlabelled line) (200 mg, 3-months, LOCF): 2.09%
- Composite Pain: m/n = # of responders/# of patients included (200 mg, 3-months, OC): 98/215
- Composite Pain: responder rate (200 mg, 3-months, OC): (45.58%)
- Composite Pain: responder rate difference from placebo (unlabelled line) (200 mg, 3-months, OC): 20.39%
- Composite Syndrome: m/n = # of responders/# of patients included (200 mg, 3-months, OC): 55/215
- Composite Syndrome: responder rate (200 mg, 3-months, OC): (25.58%)
- Composite Syndrome: responder rate difference from placebo (unlabelled line) (200 mg, 3-months, OC): 12.22%
- PGIC Component: m/n = # of responders/# of patients included (200 mg, 3-months, OC): 129/255
- PGIC Component: responder rate (200 mg, 3-months, OC): (50.59%)
- PGIC Component: responder rate difference from placebo (unlabelled line) (200 mg, 3-months, OC): 18.76%
- Pain Component: m/n = # of responders/# of patients included (200 mg, 3-months, OC): 119/217
- Pain Component: responder rate (200 mg, 3-months, OC): (54.84%)
- Pain Component: responder rate difference from placebo (unlabelled line) (200 mg, 3-months, OC): 16.44%
- SF36 PCS Component: m/n = # of responders/# of patients included (200 mg, 3-months, OC): 89/255
- SF36 PCS Component: responder rate (200 mg, 3-months, OC): (34.90%)
- SF36 PCS Component: responder rate difference from placebo (unlabelled line) (200 mg, 3-months, OC): 5.24%
- time-weighted average (AUC) of SF-36 PCS Scores, Difference from Placebo (200 mg, LOCF): 8.36
- time-weighted average (AUC) of SF-36 PCS Scores, LS Mean (200 mg, LOCF): 420.38
- time-weighted average (AUC) of SF-36 PCS Scores, Difference from Placebo (200 mg, OC): 11.17
- time-weighted average (AUC) of SF-36 PCS Scores, LS Mean (200 mg, OC): 429.46
- Mean Change from Baseline in GHP SF-36 domain score (200 mg, Tx 15, Observed Cohort): 6.6
- Mean Change from Baseline in PAIN SF-36 domain score (200 mg, Tx 15, Observed Cohort): 18.2
- Mean Change from Baseline in PCS Score at Tx 15 (200 mg, Tx 15, Observed Cohort): 3.9
- Mean Change from Baseline in PFI SF-36 domain score (200 mg, Tx 15, Observed Cohort): 6.9
- Mean Change from Baseline in ROLP SF-36 domain score (200 mg, Tx 15, Observed Cohort): 14.9
- time-weighted average (AUC) of SF-36 PCS Scores, Mean (200 mg, LOCF): 418.97
- time-weighted average (AUC) of SF-36 PCS Scores, Median (200 mg, LOCF): 419.2
- time-weighted average (AUC) of SF-36 PCS Scores, Mean (200 mg, OC): 428.24
- time-weighted average (AUC) of SF-36 PCS Scores, Median (200 mg, OC): 428.4
